Data taken from patent US12071411B2, “Inhibitors of HIF-2α and methods of use thereof” (ARCUS BIOSCIENCES, INC., priority 2021, dated 2024).

Legend:
HIF-2α [1] = molecular target: T1, HIF-2α (Homo sapiens, UniProt Q99814); test: HIF-2α Luciferase Reporter Assay (serum free) in HIF-Luc-786-0 cells; type: cell-based; conditions: Opti-MEM, 786-0 reporter cells, 20 hours incubation
Outline: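 786-0 cells stably transduced with HIF luciferase reporter, 20,000 cells/well in serum-free Opti-MEM, compounds (50 uM downward, 1% DMSO) 20 h at 37 °C. ONE-Glo luminescence normalized to DMSO and no-cell controls; IC50 from four-parameter fit.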

[2] = molecular target: T2, Biotin tagged HIF-2α protein containing PAS-B domain (240-350) (Homo sapiens, UniProt Q99814); test: HIF-2α Scintillation Proximity Assay (SPA) binding assay; conditions: 50 nM HIF-2α protein, 25 nM 3H-tracer, 2% DMSO
T2 construct: Biotin tagged HIF-2α protein containing PAS-B domain (240-350) was prepared and purified in-house; made in house
T2 sequence (Q99814 240-350): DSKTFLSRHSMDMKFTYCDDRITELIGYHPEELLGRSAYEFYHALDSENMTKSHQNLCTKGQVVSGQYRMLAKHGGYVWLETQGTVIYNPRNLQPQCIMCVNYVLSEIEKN
Protocol: HIF-2α Scintillation Proximity Assay (SPA) Binding Assay:
Biotin tagged HIF-2α protein containing PAS-B domain (240-350) was prepared and purified in-house.
Compounds solubilized in DMSO were dispensed into a white 384-well polystyrene non-binding flat clear bottom plate (Greiner Bio-One, Cat #781903) using an HP D300 dispenser. Ten microliters of biotinylated HIF-2α protein in buffer (25 mM Tris-HCl, pH 7.4, 150 mM NaCl, 0.15% BSA and 0.001% Tween 20) was added to the compound wells and allowed to incubate for 1 hour at room temperature. Ten microliters of SPA bead mix were added to the wells and incubated for an additional 45 minutes, followed by 10 ul of ^3H-tracer solution. Final assay conditions comprised 50 nM HIF-2α protein, 25 nM radiolabeled tracer and 3 ug beads per well with compounds in 2% DMSO. The plate was read using a MicroBeta Microplate Counter (PerkinElmer) for luminescence detection. The IC50 values of the test compounds were determined from compound dose response curves fitted using a standard four parameter fit equation and are reported in Table 2.

HIF-2α [3] = molecular target: T1, HIF-2α; test: HIF-2α Luciferase Reporter Assay (serum), HRE-luciferase 786-0 cells in 100% human serum; type: cell-based; conditions: for IC50: 100% human serum, 786-0 reporter cells, overnight incubation, read-out: Serum Potency; for Serum Shift (approximate): ratio of IC50 in 100% serum to IC50 in serum free conditions
Outline: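 786-0 cells stably expressing an HRE-luciferase reporter were plated and rested 3 h. They were then treated overnight at 37 °C with compound diluted in 100% human serum. Serum was replaced with Opti-MEM, ONE-Glo luminescence was read, and IC50 came from a 4-parameter logistic fit.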

T1 sequence (Q99814 whole entry): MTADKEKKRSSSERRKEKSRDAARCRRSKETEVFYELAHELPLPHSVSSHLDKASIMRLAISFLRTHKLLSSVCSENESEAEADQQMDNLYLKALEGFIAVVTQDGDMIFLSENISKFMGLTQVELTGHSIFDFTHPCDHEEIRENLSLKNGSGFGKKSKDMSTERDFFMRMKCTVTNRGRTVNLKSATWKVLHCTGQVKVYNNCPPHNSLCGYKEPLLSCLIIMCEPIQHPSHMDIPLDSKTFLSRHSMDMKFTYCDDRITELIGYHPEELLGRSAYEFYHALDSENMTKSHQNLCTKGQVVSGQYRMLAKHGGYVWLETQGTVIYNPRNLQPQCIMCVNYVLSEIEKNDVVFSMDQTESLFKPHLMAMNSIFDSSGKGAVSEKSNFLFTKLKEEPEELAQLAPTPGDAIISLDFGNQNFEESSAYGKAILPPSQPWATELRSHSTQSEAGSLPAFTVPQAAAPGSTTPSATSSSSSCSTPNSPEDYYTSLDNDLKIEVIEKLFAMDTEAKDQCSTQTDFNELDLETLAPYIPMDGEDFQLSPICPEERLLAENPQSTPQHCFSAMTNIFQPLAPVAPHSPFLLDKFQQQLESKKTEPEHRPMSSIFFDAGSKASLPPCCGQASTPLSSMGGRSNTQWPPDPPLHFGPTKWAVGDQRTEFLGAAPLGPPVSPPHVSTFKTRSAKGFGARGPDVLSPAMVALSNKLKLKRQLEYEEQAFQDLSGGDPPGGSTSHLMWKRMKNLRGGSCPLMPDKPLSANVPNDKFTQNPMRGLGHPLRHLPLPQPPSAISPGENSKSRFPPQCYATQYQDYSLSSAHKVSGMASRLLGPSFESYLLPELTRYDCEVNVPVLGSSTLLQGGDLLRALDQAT

SMILES | IC50 (HIF-2α [1]) | IC50 [2] | IC50 (HIF-2α [3]) | Serum Shift (approximate) (HIF-2α [3])
O[C@H]1c2c(C(F)(F)F)nn(C3CCC(F)(F)CC3)c2CCC1(F)F [Example 36, (4S)-1-(4,4-difluorocyclohexyl)-5,5-difluoro-3-(trifluoromethyl)-6,7-dihydro-4H-indazol-4-ol] | 100 to 1000 nM | 100 to 1000 nM |  | 
O[C@H]1c2c(C(F)(F)F)nn(CCOC3CC3(F)F)c2CCC1(F)F (stereo partly drawn) [Example 25, (4S)-1-[2-(2,2-difluorocyclopropoxy)ethyl]-5,5-difluoro-3-(trifluoromethyl)-4,5,6,7-tetrahydro-1H-indazol-4-ol] | > 1000 nM | > 1000 nM |  | 
O[C@H]1c2c(C(F)(F)F)nn(C[C@H]3C[C@H](F)C3)c2CCC1(F)F [Example 45, (4S)-5,5-difluoro-1-[(3-fluorocyclobutyl)methyl]-3-(trifluoromethyl)-6,7-dihydro-4H-indazol-4-ol] | > 1000 nM | 100 to 1000 nM |  | 
O[C@H]1c2c(C(F)(F)F)nn([C@H]3CC[C@H](C(F)(F)F)CC3)c2CCC1(F)F [Example 37, (4S)-5,5-difluoro-3-(trifluoromethyl)-1-[4-(trifluoromethyl)cyclohexyl]-6,7-dihydro-4H-indazol-4-ol] | > 1000 nM | > 1000 nM |  | 
O[C@H]1c2c(C(F)(F)F)nn(-c3ccc(F)c(F)c3)c2CC1(F)F [Example 115] | 100 to 1000 nM |  | > 1000 nM | 45
O[C@H]1c2c(C(F)(F)F)nn([C@@H]3CCC(F)(F)[C@@H](F)C3)c2CC1(F)F [Example 121, (4S)-5,5-difluoro-1-[(1R,3S)-3,4,4-trifluorocyclohexyl]-3-(trifluoromethyl)-4,6-dihydrocyclopenta[c]pyrazol-4-ol] | < 100 nM |  | > 1000 nM | 11
O[C@H]1c2c(C(F)(F)F)nn([C@@H]3C[C@@H](F)[C@@H](F)[C@@H](F)C3)c2[C@H](F)C1(F)F (single isomer, unassigned) [146/147 DIAST-1] | < 100 nM |  | < 100 nM | 5
O[C@H]1c2c(C(F)(F)F)nn([C@@H]3COCC(F)(F)C3)c2CC1(F)F [Example 87, (4S)-1-[(3S)-5,5-difluorooxan-3-yl]-5,5-difluoro-3-(trifluoromethyl)-1H,4H,5H,6H-cyclopenta[c]pyrazol-4-ol] | 100 to 1000 nM |  | > 1000 nM | 7
O[C@H]1c2c(C(F)(F)F)nn(-c3ccc(Cl)c(Cl)c3)c2CC1(F)F [Example 118, (4S)-1-(3,4-dichlorophenyl)-5,5-difluoro-3-(trifluoromethyl)-4,6-dihydrocyclopenta[c]pyrazol-4-ol] | < 100 nM |  | > 1000 nM | 119
CO[C@H](CCn1nc(C(F)(F)F)c2c1CC(F)(F)[C@H]2O)C(F)(F)F [Example 61, (4S)-5,5-difluoro-1-[(3R)-4,4,4-trifluoro-3-methoxybutyl]-3-(trifluoromethyl)-4,6-dihydrocyclopenta[c]pyrazol-4-ol] | < 100 nM |  | < 100 nM | 
O[C@H]1c2c(C(F)(F)F)nn([C@H]3CCO[C@@H](C(F)(F)F)C3)c2[C@@H](F)[C@H]1F (single isomer, unassigned) [150/151 DIAST-1] | 100 to 1000 nM |  | > 1000 nM | 5
O[C@H]1c2c(C(F)(F)F)nn(CCCOC(F)(F)F)c2[C@H](F)CC1(F)F (single isomer, unassigned) [129/130 DIAST-2] | 100 to 1000 nM |  | > 1000 nM | 17
O[C@H]1c2c(C(F)(F)F)nn([C@H]3CCC[C@H](C(F)(F)F)C3)c2CC1(F)F [Example 81, (4S)-5,5-difluoro-3-(trifluoromethyl)-1-[(1S,3S)-3-(trifluoromethyl)cyclohexyl]-1H,4H,5H,6H-cyclopenta[c]pyrazol-4-ol] | 100 to 1000 nM |  | > 1000 nM | 49
